# Key:
# [1] = molecular target: human Gal-1 (hGal-1) (Homo sapiens, UniProt P09382, C131S/C17S/C43S/C61S/C89S); assay: Competitive binding assay: biotinylated hGal-1 binding to microplate-adsorbed asialofetuin (ASF); conditions: IC50 values from several measurements given as geomean
# Method in brief: (§1)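 Biotinylated hGal-3 or hGal-1 (preferably cysteine-free Cys→Ser mutant), 300–1000 ng/mL, competes with compound for ASF-coated wells for 3 h at 4 °C. Bound lectin detected with streptavidin-peroxidase (80 ng/mL, 1 h, 4 °C) and ABTS by absorbance; IC50 reported as geomean of several runs.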
# [2] = molecular target: human Gal-3 (hGal-3) (Homo sapiens (Human), UniProt P17931); assay: Competitive binding assay: biotinylated hGal-3 binding to microplate-adsorbed asialofetuin (ASF); conditions: IC50 values from several measurements given as geomean
# human Gal-3 (hGal-3), sequence (P17931 whole entry): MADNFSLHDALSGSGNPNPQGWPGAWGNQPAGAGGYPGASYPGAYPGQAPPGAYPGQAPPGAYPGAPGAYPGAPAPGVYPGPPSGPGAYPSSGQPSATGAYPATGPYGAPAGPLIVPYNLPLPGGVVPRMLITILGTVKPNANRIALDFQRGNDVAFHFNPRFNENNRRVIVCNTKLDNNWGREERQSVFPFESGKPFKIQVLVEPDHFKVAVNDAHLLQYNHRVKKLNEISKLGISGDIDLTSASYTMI
# Method in brief: as §1
Compound,IC50 [1] [nM],IC50 [2] [nM]
"CO[C@@H]1[C@@H](n2cc(-c3ccc(Cl)c(F)c3F)nn2)[C@@H](O)[C@@H](CO)O[C@@H]1Cc1cn(C2CCOCC2(F)F)nn1 (single isomer, unassigned) [Example 2.1.89.A]",100,10
CO[C@@H]1[C@@H](n2cc(-c3ccc(C)c(F)c3F)nn2)[C@@H](O)[C@@H](CO)O[C@@H]1Cn1cc(C2(O)CCCC2)nn1 [Ex 1.2.33.],5700,110
"CO[C@@H]1[C@@H](n2cc(-c3ccc(Cl)c(F)c3F)nn2)[C@@H](O)[C@@H](CO)O[C@@H]1Cc1cn([C@@H]2COC[C@H]2F)nn1 (single isomer, unassigned) [Example 2.1.74.D, (2R,3R,4S,5R,6R)-4-(4-(4-chloro-2,3-difluorophenyl)-1H-1,2,3-triazol-1-yl)-6-((1-((3R*,4S*)-4-fluorotetrahydrofuran-3-yl)-1H-1,2,3-triazol-4-yl)methyl)-2-(hydroxymethyl)-5-methoxytetrahydro-2H-pyran-3-ol]",3540,70
"CO[C@@H]1[C@@H](n2cc(-c3ccc(Cl)c(F)c3F)nn2)[C@@H](O)[C@@H](CO)O[C@@H]1Cc1cn(C2(C(F)(F)F)CCOC2)nn1 (single isomer, unassigned) [Example 2.1.77.B]",590,30
"CO[C@@H]1[C@@H](n2cc(-c3ccc(F)c(F)c3F)nn2)[C@@H](O)[C@@H](CO)O[C@@H]1Cc1cn([C@@H]2CCOC[C@H]2F)nn1 (single isomer, unassigned) [Example 3.1.66.C, (2R,3R,4S,5R,6R)-6-((1-((3S*,4R*)-3-fluorotetrahydro-2H-pyran-4-yl)-1H-1,2,3-triazol-4-yl)methyl)-2-(hydroxymethyl)-5-methoxy-4-(4-(2,3,4-trifluorophenyl)-1H-1,2,3-triazol-1-yl)tetrahydro-2H-pyran-3-ol]",270,40
CO[C@@H]1[C@@H](n2cc(-c3ccc(F)c(F)c3F)nn2)[C@@H](O)[C@@H](CO)O[C@@H]1Cc1cn(C2(C(F)(F)F)CC2)nn1 [Ex 3.1.54.],280,50
"CO[C@@H]1[C@@H](n2cc(-c3ccc(Cl)c(F)c3F)nn2)[C@@H](O)[C@@H](CO)O[C@@H]1Cc1cn([C@@H]2CCOC[C@@H]2F)nn1 [Example 2.1.66.A, (2R,3R,4S,5R,6R)-4-(4-(4-chloro-2,3-difluorophenyl)-1H-1,2,3-triazol-1-yl)-6-((1-((3R,4R)-3-fluorotetrahydro-2H-pyran-4-yl)-1H-1,2,3-triazol-4-yl)methyl)-2-(hydroxymethyl)-5-methoxytetrahydro-2H-pyran-3-ol]",570,10
CO[C@@H]1[C@@H](n2cc(-c3ccc(C)c(F)c3F)nn2)[C@@H](O)[C@@H](CO)O[C@@H]1Cc1cn(C2(CCO)COC2)nn1 [Ex 1.1.22.],690,40
"CO[C@@H]1[C@@H](n2cc(-c3ccc(Cl)c(F)c3F)nn2)[C@@H](O)[C@@H](CO)O[C@@H]1Cc1cn([C@H]2CCCC2(F)F)nn1 [Example 2.1.64.B, (2R,3R,4S,5R,6R)-4-(4-(4-chloro-2,3-difluorophenyl)-1H-1,2,3-triazol-1-yl)-6-((1-((S)-2,2-difluorocyclopentyl)-1H-1,2,3-triazol-4-yl)methyl)-2-(hydroxymethyl)-5-methoxytetrahydro-2H-pyran-3-ol]",2340,30
COC1=C(N2CC(c3ccc(Br)c(F)c3F)NN2)C(O)=C(CO)O[C@@H]1Cn1cc(C23CCC(NC(=O)OC(C)(C)C)(CC2)CC3)nn1 (some centres unmarked) [Ex 4.2.37.],11300,50
CO[C@@H]1[C@@H](n2cc(-c3ccc(C)c(F)c3F)nn2)[C@@H](O)[C@@H](CO)O[C@@H]1Cc1cn(C23CC(F)(C2)C3)nn1 [Ex 1.1.25.],3950,40
CO[C@@H]1[C@@H](n2cc(-c3ccc(Cl)c(F)c3F)nn2)[C@@H](O)[C@@H](CO)O[C@@H]1Cc1cn(C2(CO)CC(F)(F)C2)nn1 [Ex 2.1.18.],2810,40
CO[C@@H]1[C@@H](n2cc(-c3ccc(Cl)c(F)c3F)nn2)[C@@H](O)[C@@H](CO)O[C@@H]1Cn1cc(C2(O)CC2)nn1 [Ex 2.2.36.],3160,90
CO[C@@H]1[C@@H](n2cc(-c3ccc(Cl)c(F)c3F)nn2)[C@@H](O)[C@@H](CO)O[C@@H]1Cc1cn(C2[C@H]3CCC[C@@H]23)nn1 (some centres unmarked) [Ex 2.1.20.],2060,60
CO[C@@H]1[C@@H](n2cc(-c3ccc(Cl)c(F)c3F)nn2)[C@@H](O)[C@@H](CO)O[C@@H]1Cc1cn(C2COCC2(F)F)nn1 (mixture of isomers) [Example 2.1.90.A],1130,30

# The remaining lines, values ahead:
IC50 [1] [nM],IC50 [2] [nM],Compound
1940,30,"CO[C@@H]1[C@@H](n2cc(-c3ccc(Br)c(F)c3F)nn2)[C@@H](O)[C@@H](CO)O[C@@H]1Cc1cn(C2(CF)CC2)nn1 [Ex 4.1.46., (2R,3R,4S,5R,6R)-4-(4-(4-bromo-2,3-difluorophenyl)-1H-1,2,3-triazol-1-yl)-6-((1-(1-(fluoromethyl)cyclopropyl)-1H-1,2,3-triazol-4-yl)methyl)-2-(hydroxymethyl)-5-methoxytetrahydro-2H-pyran-3-ol]"
260,70,"CO[C@@H]1[C@@H](n2cc(-c3ccc(F)c(F)c3F)nn2)[C@@H](O)[C@@H](CO)O[C@@H]1Cc1cn(C2(CF)CCC2)nn1 [Ex 3.1.40., (2R,3R,4S,5R,6R)-6-((1-(1-(fluoromethyl)cyclobutyl)-1H-1,2,3-triazol-4-yl)methyl)-2-(hydroxymethyl)-5-methoxy-4-(4-(2,3,4-trifluorophenyl)-1H-1,2,3-triazol-1-yl)tetrahydro-2H-pyran-3-ol]"
290,30,CO[C@@H]1[C@@H](n2cc(-c3ccc(F)c(F)c3F)nn2)[C@@H](O)[C@@H](CO)O[C@@H]1Cc1cn(C2(C)CCC2)nn1 [Ex 3.1.13.]
1030,60,"CO[C@@H]1[C@@H](n2cc(-c3ccc(Br)c(F)c3F)nn2)[C@@H](O)[C@@H](CO)O[C@@H]1Cc1cn(C2(CF)CCC2)nn1 [Ex 4.1.40., (2R,3R,4S,5R,6R)-4-(4-(4-bromo-2,3-difluorophenyl)-1H-1,2,3-triazol-1-yl)-6-((1-(1-(fluoromethyl)cyclobutyl)-1H-1,2,3-triazol-4-yl)methyl)-2-(hydroxymethyl)-5-methoxytetrahydro-2H-pyran-3-ol]"
2030,20,"CO[C@@H]1[C@@H](n2cc(-c3ccc(Br)c(F)c3F)nn2)[C@@H](O)[C@@H](CO)O[C@@H]1Cc1cn(C23CCOC(C)(C2)C3)nn1 [Ex 4.1.62., (2R,3R,4S,5R,6R)-4-(4-(4-bromo-2,3-difluorophenyl)-1H-1,2,3-triazol-1-yl)-2-(hydroxymethyl)-5-methoxy-6-((1-(1-methyl-2-oxabicyclo[3.1.1]heptan-5-yl)-1H-1,2,3-triazol-4-yl)methyl)tetrahydro-2H-pyran-3-ol]"
1450,30,CO[C@@H]1[C@@H](n2cc(-c3ccc(C)c(F)c3F)nn2)[C@@H](O)[C@@H](CO)O[C@@H]1Cc1cn(C2(C)CCC2)nn1 [Ex 1.1.13.]
3630,50,CO[C@@H]1[C@@H](n2cc(-c3ccc(Br)c(F)c3F)nn2)[C@@H](O)[C@@H](CO)O[C@@H]1Cc1cn(C23CC(OC)(C2)C3)nn1 [Ex 4.1.29.]

# Reference: US20240109930A1, “TRIAZOLYL-METHYL SUBSTITUTED ALPHA-D-GALACTOPYRANOSIDE DERIVATIVES” (Idorsia Pharmaceuticals Ltd, priority 2021, published 2024)
